We go through two compounds from patent EP4596561A1, “PHOSPHORUS-CONTAINING COMPOUND, PHARMACEUTICAL COMPOSITION AND USE THEREOF” (Suzhou Genhouse Bio Co., Ltd., priority 2022, dated 2024).

The nature of series [1]: Stability test in liver microsomes. Format: in vitro ADME, SD rat. The conditions noted are these: rat liver microsomes, 0.5 mg/mL, 1.0 µM substrate. The method, then: (§1) Phase I metabolic stability of the test compounds in liver microsomes of CD-1 mice, Sprague-Dawley rats, and humans was assessed.
(§2) The animal and human liver microsomes used in the test system were purchased from Xenotech, Corning, or other qualified suppliers and stored in a freezer at a temperature below -60 °C prior to use. The information of the animal and human liver microsomes used was as follows:
(§3) The test samples and the reference compounds were separately incubated with animal and human liver microsomes at 37±1 °C for a period of incubation time of up to 60 min. The samples were taken out at the indicated time points, and the reaction was stopped with acetonitrile or another organic solvent containing an internal standard. After centrifugation, the resulting supernatants were assayed by the liquid chromatography-tandem mass spectrometry (LC-MS/MS) method.
(§4) Microsomes of each species were diluted into a 2× working solution with a 100 mM potassium phosphate buffer. […]
(§5) Incubation was performed in a 96-well plate. Eight incubation plates were prepared and designated T0, T5, T15, T30, T45, T60, Blank60, and NCF60, respectively. The first 6 plates corresponded to reaction time points of 0 min, 5 min, 15 min, 30 min, 45 min, and 60 min, respectively. No test sample or reference compound was added to the Blank60 plate, and samples were taken after 60 min of incubation. In the NCF60 plate, incubation was performed for 60 min using the potassium phosphate buffer instead of the NADPH regeneration system solution. Three replicates were made for samples in all conditions.
(§6) The microsomes and the test sample or reference compound were mixed, and then the incubation plates Blank60, T5, T15, T30, T45, and T60 except for T0 and NCF60 were placed in a 37 °C water bath for pre-incubation for about 10 min. In the incubation plate T0, a stop solution was first added, followed by the addition of the NADPH regeneration system working solution, and 98 µL of the potassium phosphate buffer was added to each sample well of the incubation plate NCF60 to initiate the reaction. After the pre-incubation of the incubation plates Blank60, T5, T15, T30, T45, and T60 was completed, 98 µL of the NADPH regeneration system working solution was added to each sample well to initiate the reaction. The reaction temperature was 37±1 °C, the final volume of the reaction was 200 µL, and the reaction system included 0.5 mg/mL microsomes, 1.0 µM substrate, 1 mM NADP, 6 mM ISO, and 1 unit/mL IDH.
(§7) At 5 min, 15 min, 30 min, 45 min, and 60 min, a cold stop solution containing an internal standard was added to the reaction plate to stop the reaction.
(§8) All the reaction plates after the reaction was stopped were shaken well and centrifuged at 3220× g at 4 °C for 20 min. After the supernatant was diluted at a certain ratio, LC-MS/MS analysis was performed.
(§9) Sample analysis was performed by the liquid chromatography-tandem mass spectrometry (LC-MS/MS) method without standard curves and quality control samples. Semi-quantitative determination was performed according to the ratio of the analyte peak area to the internal standard peak area. The retention times of the analyte and internal standard, the chromatogram acquisition, and chromatogram integration were processed using the Analyst software (Sciex, Framingham, Massachusetts, USA).
(§10) According to the well stir model, the hepatic intrinsic clearance and hepatic clearance can be converted through the following formula. CL(liver) = (CLint(liver)×Qh)/(CLint(liver)+Qh) [formula]

The nature of series [2]: Stability test in liver microsomes. Format: in vitro ADME. The conditions noted are these: Human liver microsomes, 0.5 mg/mL, 1.0 µM substrate. The method, then:
as §1, §2, §3, §4, §5, §6, §7, §8, §9, §10

Series [3] is described as follows: Pharmacokinetic test in mice (low dose). Particulars: mouse, mice; for AUC(0-t): read-out: AUClast; for clearance: read-out: Cl (converted); for half-life: read-out: T1/2 (converted); for bioavailability: PO 10 mg/kg vs IV 2 mg/kg, read-out: F%; for Cmax: read-out: Cmax. Format: in vivo, Balb/c mice. The method, then:
The compounds of the present disclosure were administered to Balb/c mice by single intravenous injection and oral gavage, and the plasma of the mice at each time point was collected. The concentration of the compounds to be tested in BALB/C plasma was detected using the LC-MS/MS analysis method, and pharmacokinetic analysis was performed.
The mixture was vortexed, shaken, and ultrasonicated. The remaining volume of 25% sulfobutylether-β-cyclodextrin (sterilized) was added to prepare the final concentration solution or suspension.
Intravenous injection formulations will be directly administered in animal experiments without filtration. The IV drug preparation vials were disinfected in an infrared sterilization cabinet one day in advance.
Intravenous injection: Administration was performed via the tail vein. After the needle was inserted, the syringe was slowly […].
Gavage: Gavage needle and syringe of an appropriate type were selected. The gavage needle was inserted from the root of the tongue into the esophagus until it reached near the cardia of the stomach, then the drug formulation was injected, and the gavage needle was withdrawn. When disposable plastic gavage needles were used, one needle was used for each group.
At each time point, 60 µL of whole blood was collected from the submandibular vein or tail vein (except for the IV group). The blood sample was added to a pre-cooled anticoagulant blood collection tube containing anticoagulant EDTA-K2 (1 µL, 15% EDTA-K2 solution), placed on wet ice, and centrifuged (3000 g, 4 °C, 10 min) within 1 h. The plasma was immediately collected after centrifugation, transferred to an EP tube, and stored at -90 °C to -60 °C.
Plasma concentration detection: A developed LC-MS/MS method was used to detect the compounds in plasma.
The plasma concentration-time data were analyzed using a non-compartmental model in the Phoenix® WinNonlin® (Version 8.2, Pharsight, Mountain View, CA).

Series [4] has as its system YAP-TEAD transcription complex. In words: YAP-TEAD reporter gene assay (dual luciferase, stably transfected 293T cells). Format: cell-based. Particulars: Homo sapiens, HEK-293T. As to the method: YAP-TEAD reporter gene The YAP-TEAD reporter gene assay was performed as follows. Firstly, the 8xGTIIC promoter sequence ([…] GTACTGTTGGTAAA) was constructed into a pGL4.20(luc2-Puro) plasmid, and the TK promoter ([…]) unrelated to the hippo pathway was constructed into a pGL4.78(hRlucCP/Hygro) plasmid, thereby constructing stably transfected 293T cells that can stably and continuously express the transcriptional activity of the YAP-TEAD transcription complex. After selection and identification of individual clones, the clones were grown and maintained in a DMEM medium containing 10% fetal bovine serum, penicillin-streptomycin solution, 1 µg/mL puromycin, and 150 µg/mL hygromycin. To perform reporter gene assays with the compounds to be tested, the well-growing cells described above were plated in a 384-well plate at a cell density of 3000 cells per well, with 90 µL per well. The periphery was sealed with an appropriate amount of PBS to prevent evaporation of water from the peripheral wells. Administration was performed on the next day after the cell plating. The test compounds were added at different concentration gradients, and three replicate wells were set for each concentration point. The compound concentration started at 5 µM and was diluted seven times with a 5-fold gradient. A corresponding negative control group treated with DMSO was also set up. After 24 h of drug treatment, the detection reagents were prepared first. The Dual-Lumi™ Firefly luciferase detection reagent and Dual-Lumi™ Renilla luciferase detection buffer were dissolved and brought to room temperature. […]. According to the amount of 100 µL of Dual-Lumi™ Renilla luciferase detection working solution required for the detection of each sample, an appropriate amount of Dual-Lumi™ Renilla luciferase detection working solution was prepared. […]. The cell culture plate was taken out and allowed to equilibrate at room temperature for 10 min (usually no more than 30 min). Then, 100 µL of Dual-Lumi™ Firefly luciferase detection reagent was added to each well of a 96-well plate (25 µL per well for the 384-well plate), and the mixture was mixed well. The mixture was then incubated at room temperature (about 25 °C) for 10 min to stabilize the luminescent signal, and then chemiluminescence was detected using a multimode microplate reader with a chemiluminescence detection function. Subsequently, the detection of Renilla luciferase began. Firstly, 100 µL of Dual-Lumi™ Renilla luciferase detection working solution was added to each well of a […] (25 µL per well for the 384-well plate), and the mixture was mixed well. The mixture was then incubated at room temperature (about 25 °C) for 10 min to stabilize the luminescent signal. Finally, chemiluminescence was detected using a multimode microplate reader with a chemiluminescence detection function. The obtained data were analyzed using GraphPad Prism 7.0 software. A sigmoidal dose-survival rate curve was plotted using a non-linear regression model, and the IC50 values were calculated.

Series [5] can be described thus: Stability test in liver microsomes. In kind it is in vitro ADME, CD-1 mouse. Particulars: mouse liver microsomes, 0.5 mg/mL, 1.0 µM substrate. The method, then: as §1, §2, §3, §4, §5, §6, §7, §8, §9, §10
Series [6] can be described thus: Saturated solubility in FaSSIF solution. Format: physicochemical. Particulars: room temperature, stirred overnight. As to the method: Efficacy Experimental Example 9: Test of Saturated Solubility of Samples in FaSSIF Solution
About 0.21 g of sodium hydroxide, about 2.24 g of sodium dihydrogen phosphate dihydrate, and 3.09 g of sodium chloride were weighed out and dissolved in 500 mL of water, and after dissolution, the pH was adjusted to 6.5 with 1 N sodium hydroxide or 1 N hydrochloric acid.
112 mg of FaSSIF solid was weighed out and placed in a 50 mL volumetric flask, and the buffer described above was added for dissolution. The resulting solution was diluted to volume, mixed well, and left to stand at room temperature for 2 h or more.
Test sample: About 1 mg of the test sample was taken, and 1 mL of FaSSIF solution was added. The mixture was stirred at room temperature overnight and centrifuged, and the supernatant was collected and injected for analysis.
Reference sample solution: About 1.5 mg of the test sample was precisely weighed out and placed in a 50 mL volumetric flask, and DMF was added for dissolution. The resulting solution was diluted to volume and mixed well.
The peak of the main component of the reference sample and the peak of the test sample with the same retention time were integrated, and the concentration thereof in the FaSSIF solution was calculated according to the external standard method.

Series [7] can be described thus: in vivo. Particulars: mouse, plasma, po, 100 mg/kg.
Method: After adding 5% DMSO, the mixture was vortexed. 15% HS15 was then added, and the mixture was vortexed again. Finally, a 10% aqueous cyclodextrin solution was added, and the resulting mixture was vortexed to prepare the final concentration solution or suspension.
In series [8] the test system is NCI-H2452 (NF2 wide-type). In words: Inhibition of cell proliferation (CellTiter-Lumi). Format: cell-based. The conditions noted are these: Homo sapiens, 72 h + another 72 h treatment. The method, then:
(§11) NCI-H2052 (NF2 mutant), NCI-H226 (NF2 mutant), NCI-H2452 (NF2 wide-type), NCI-H28 (NF2 wide-type), and MSTO-211H (NF2 wide-type) cells were cultured in RPMI 1640 complete media.
(§12) The normally growing cells described above were digested with a trypsin cell-digesting solution, centrifuged, counted, and then plated in a 96-well plate at a density of 1000 cells per well. Administration was performed 24 h after the cell plating. Inhibitors at different concentration gradients were added at 10 µL per well, and three replicate wells were set for each concentration point. The starting concentration was 20 µM and diluted 8 times with a 4-fold gradient. A corresponding negative control group treated with 0.1% DMSO was also set up. After 72 h of drug treatment, the cell culture plate to be tested was taken out of the incubator. The culture medium in the 96-well plate was pipetted, and 190 µL of fresh RPMI 1640 complete medium was added. Another administration was performed, and the cells were cultured for another 72 h. The 96-well plate was taken out and allowed to equilibrate at room temperature for 10 min. […] After shaking for two minutes, the mixture was reacted at room temperature for 10 min. Then, 150 µL of liquid was pipetted from the transparent 96-well plate and transferred to a white 96-well plate for chemiluminescence reading. The background value was subtracted from the value for each well to calculate the cell survival rate. Survival rate (%) = […]. Sample is the chemiluminescence of the drug-treated group, and Vehicle is the […] of the DMSO control group. A sigmoidal dose-survival rate curve was plotted using a non-linear regression model in the GraphPad Prism 7.0 software, and the IC50 values or GI50 values were calculated.

For series [9], the system named is NCI-H28 (NF2 wide-type). In words: Inhibition of cell proliferation (CellTiter-Lumi). The conditions noted are these: Homo sapiens, 72 h + another 72 h treatment. In kind it is cell-based. As to the method:
as §11, §12

The structures appear in SMILES notation. Like-named read-outs stand apart in the source and are kept apart here.

With `Cn1cc2c3cc(P(C)(C)=O)ccc3n(-c3ccc(C(F)(F)F)cc3)c2n1` [Example 16], in [1], the half-life at 1 µM was greater than 2.42 h. In [2], the half-life at 1 µM is greater than 2.42 h. Also, in [3] (in vivo, IV 2 mg/kg), the MRT was 3.6 h, the AUC(0-t) was found to be 5.44 µM·h, the clearance was 13.3 mL/min/kg and the half-life is 2.7 h. In series [3] (in vivo, PO 10 mg/kg), the MRT worked out at 5.3 h, the AUC(0-t) was found to be 63.5 µM·h, the Cmax is 7.17 µM and the half-life is 3.1 h. In series [3] (in vivo), the bioavailability turned out to be 206%. Further, the IC50 in [4] (24 h) turned out to be 31.8 nM. For the same compound, the half-life at 1 µM in series [5] was greater than 2.42 h.
Consider `Cc1cc(Oc2ccc(C(F)(F)F)cc2)c2ccc(P(C)(C)=O)cc2c1` [Example 29], for which the “FaSSIF(pH = 6.5)” value in [6] was found to be 223.4 ug/mL. In addition, the AUC(0-t) is 2160 µM·h in [7]; 50.8 µM·h in series [3] (plasma, IV 2 mg/kg); 251 µM·h in series [3] (plasma, PO 10 mg/kg). In addition, the clearance in series [3] (plasma, IV 2 mg/kg) is 0.4 mL/min/kg. Moreover, the half-life in [3] (plasma, IV 2 mg/kg) was 63.5 h; in series [3] (plasma, PO 10 mg/kg), 17 h. Also, the bioavailability in series [3] (plasma) was found to be 99%. For the same compound, the Cmax in series [3] (plasma, PO 10 mg/kg) was determined as 13.3 µM. Besides, the IC50 in series [8] is greater than 1250 nM; in series [9] it was greater than 1250 nM; in [4] (293T reporter cells, 24 h of drug treatment, read-out: IC50), 4.65 nM.
